Experimental data taken from patent US9416103B2, “Use of the aminoalkylindole JWH-073-M4 and related compounds as neutral CB1 receptor antagonists for the treatment of alcoholism, drug abuse, obesity, and obesity-related diseases” (The Board of Trustees of the University of Arkansas, priority 2012, dated 2016).
Several values for one entry are separate records, joined by “and”; a condition that tells them apart may be missing. Equal entries are not always repeated. Where two headings read alike, the source gives them in different places. Marks after values point to notes of the source that are not given here.

Experiments:
[1] = target: CB1Rs endogenously expressed in Neuro2A cells (Mus musculus (Mouse), UniProt P47746); assay: Adenylyl cyclase (AC) inhibition via CB1Rs endogenously expressed in Neuro2A cells; format: cell-based
CB1Rs [2] = target: T1, CB1Rs (Mus musculus (Mouse), UniProt P47746); assay: [35S]GTPγS binding assay (G-protein activation) in mouse brain homogenates; format: biochemical; details: for [35S]GTPγS Binding, +O-2050 (1 μM): 1 μM cannabinoid (100 nM for CP-55,940) co-incubated with CB1R antagonist O-2050 1 μM; for [35S]GTPγS Binding, 10 μM: receptor-saturating concentration 10 μM
Procedure: (§1) Mouse brain homogenates for in vitro assays were prepared as previously described. Briefly, whole brains were harvested from B6SJL mice, snap-frozen in liquid nitrogen and stored at −80° C. On the day membrane homogenates were to be prepared, brains were thawed on ice, then pooled in a 40 mL Dounce glass homogenizer and suspended in 5 volumes of ice cold homogenization buffer (50 mM HEPES, pH 7.4, 3 mM MgCl2, and 1 mM EGTA). Brains were then subjected to 10 complete strokes with an A pestle, followed by centrifugation at 40,000×g for 10 minutes at +4° C. Resulting supernatants were discarded, and the pellet was resuspended, homogenized and centrifuged similarly twice more, with supernatants being discarded. For the final resuspension and homogenization with a B pestle, ice-cold 50 mM HEPES was used in place of homogenization buffer, and homogenates were aliquoted and stored at −80° C. Protein concentrations of homogenates were determined using the BCA™ Protein Assay (Thermo Scientific, Rockford, Ill.).
[^35S]GTPγS binding was performed as previously described. Briefly, 25 μg of mouse brain homogenates were incubated for 30 minutes at 30° C. with 0.1 nM [^35S]GTPγS, 10 μM GDP, and either cannabinoid+/−antagonist, 10 μM unlabeled GTPγS (non-specific binding) or vehicle (total binding), in triplicate, in a volume of 1 mL of buffer containing 20 mM HEPES, 10 mM MgCl2, 100 mM NaCl, 20 units/L adenosine deaminase, 0.05% BSA and the appropriate DMSO (0.1%) and/or ethanol (<0.2%) vehicle. Assay buffer containing 100 mM KCl, instead of 100 mM NaCl, was used to increase basal G-protein activity in experiments examining inverse agonism. Reactions were terminated by quick vacuum filtration through Whatman GF/B glass fiber filters, followed by five washes with ice-cold buffer (20 mM HEPES, 0.05% BSA). Filters were immediately placed into 7 mL scintillation vials to which 4 mL of ScintiVerse™ BD Cocktail scintillation fluid was added. Bound radioactivity was determined after overnight incubation at room temperature and shaking by liquid scintillation spectrophotometry with an efficiency of 93% (Tri Carb 2100 TR Liquid Scintillation Analyzer, Packard Instrument Company, Meriden, Conn.). Specific binding is expressed as picomoles of [^35S]GTPγS bound per mg of protein.
(§2) Curve fitting and statistical analyses for in vitro experiments were performed using GraphPad Prism™ version 5.0b (GraphPad Software Inc., San Diego, Calif.). The Cheng-Prusoff equation [45] was used to convert the experimental IC50 values obtained from competition receptor binding experiments to Ki values, a quantitative measure of receptor affinity. Non-linear regression for one-site competition was used to determine the IC50 for competition receptor binding. Curve fitting of concentration-effect curves via non-linear regression was also employed to determine the EC50 (a measure of potency) and Emax (a measure of efficacy) for [^35S]GTPγS concentration-effects experiments. […] Data are expressed as mean±SEM. The Student's t-test was used to determine statistical significance (P<0.05) between two groups, while a one-way ANOVA, followed by Tukey's Multiple Comparison post-hoc test, was used to determine statistical significance (P<0.05) between three or more groups.

NIH Swiss mice [3] = assay: Core body temperature by biotelemetry (cannabinoid tetrad, hypothermia); format: in vivo, mouse; details: i.p.
Procedure: Prior to surgery (see below), male NIH Swiss mice (Harlan Sprague Dawley Inc., Indianapolis, Ind.), weighing approximately 25-30 g, were housed 3 animals per Plexiglas® cage (15.24×25.40×12.70 cm) in a temperature-controlled room in an Association for Assessment and Accreditation of Laboratory Animal Care (AAALAC) accredited animal facility at the University of Arkansas for Medical Sciences. Room conditions were maintained at 22±2° C. and 45-50% humidity. Lights were set to a 12-h light/dark cycle. Animals were fed Lab Diet rodent chow (Laboratory Rodent Diet #5001, PMI Feeds, Inc., St. Louis, Mo.) and water ad libitum throughout testing Animals were acclimated to the laboratory environment for ˜7 days prior to experiments, and to the biotelemetry chambers for at least 2 hours prior to initiation of data acquisition. All test conditions used groups of 5 or 6 mice, and all mice were drug-naïve (with the exception of surgical anesthetics) prior to testing.
Cannabinoid effects on core temperature and locomotor activity were measured using surgically-implanted biotelemetry probes. Following appropriate anesthetization with ketamine (100 mg/kg, intraperitoneal [i.p.]) and xylazine (10 mg/kg, i.p.), the abdominal area of each mouse was shaved and sanitized with iodine swabs. A rostral-caudal cut approximately 1.5 cm in length was made with skin scissors, providing access to the intraperitoneal cavity. A cylindrical glass-encapsulated radiotelemetry probe (model ER-4000 E-Mitter, Mini Mitter Co., Inc., Bend, Oreg.) was then inserted, and the incision was closed using absorbable 5-0 chromic gut suture material. At least 7 days were imposed between surgery and experimental observation of cannabinoid effects to allow incisions to heal and mice to recover normal body weights. Following surgery, implanted mice were individually housed in Plexiglas® mouse cages (15.24×25.40×12.70 cm) for the duration of all temperature and locomotor activity experiments Implanted transmitters produced activity- and temperature-modulated signals that were transmitted to a receiver (model ER-4000 Receiver, Mini Mitter Co., Inc., Bend, Oreg.) underneath each mouse cage. Receivers were housed in light- and sound-attenuating cubicles (Med Associates model ENV-022MD, St. Albans, Vt.) equipped with exhaust fans, which further masked ambient laboratory noise. On experimental days, mice were weighed, marked, and returned to their individual cages during which at least 1 hr of baseline data were collected. […]. Mice were then placed into a new cage with fresh bedding to stimulate exploratory behavior. Temperature and locomotor activity data were collected at regular 5-min intervals and processed simultaneously by the Vital View data acquisition system (Mini Mitter Co., Inc., Bend, Oreg.) for at least 10 hrs.
For core body temperature experiments, the area under the curve (AUC) was calculated using a trapezoidal rule from 0-500 minutes, and statistical significance (P<0.05) was determined using a one-way ANOVA, followed by Tukey's HSD post-hoc test. For locomotor activity, total locomotor counts were summed from 0-800 minutes. Because locomotor, analgesia and catalepsy data were not normally distributed, Kruskal-Wallis one-way ANOVA on ranks were performed, and all pair-wise comparisons were then made using the Tukey's HSD tests. In vivo statistical calculations were performed using SigmaStat 3 (Systat Software, Inc., San Jose, Calif.).

CB1Rs [4] = target: T1, CB1Rs; assay: Competition receptor binding with [3H]CP-55,940 in mouse brain homogenates
Procedure: as §1
(§3) Competition receptor binding was performed as previously described. […] Reactions were terminated by rapid vacuum filtration through Whatman GF/B glass fiber filters, followed by five washes with ice-cold buffer (50 mM Tris, 0.05% BSA). Filters were immediately placed into 7 mL scintillation vials to which 4 mL of ScintiVerse™ BD Cocktail scintillation fluid (Fisher Scientific, Fair Lawn, N.J.) was added. Bound radioactivity was determined after overnight incubation at room temperature and shaking, by liquid scintillation spectrophotometry with an efficiency of 44% (Tri Carb 2100 TR Liquid Scintillation Analyzer, Packard Instrument Company, Meriden, Conn.). Specific binding is expressed as total binding minus non-specific binding, and is graphed for each data point as a percentage of specific binding occurring in the absence of any competitor.
as §2
(§4) The prepared analogues were subjected to in vitro pharmacological testing, which included receptor binding and functional assays at both cannabinoid receptors. Initial receptor binding screens at both CB1Rs and CB2Rs were conducted for the analogues prepared.

NIH Swiss mice [5] = assay: Locomotor activity by biotelemetry (cannabinoid tetrad); format: in vivo, mouse; details: 10 mg/kg, i.p.
hCB2Rs [6] = target: T2, hCB2Rs (Homo sapiens (Human), UniProt P34972); assay: Competition receptor binding with [3H]CP-55,940 in CHO-hCB2 cell homogenates; details: Table 3; read-out: hCB2R Ki
Procedure: as §3, §4

hCB2Rs [7] = target: T2, hCB2Rs; assay: Inhibition of forskolin-stimulated cAMP production (adenylyl cyclase) in intact CHO-hCB2R cells; format: cell-based; details: 10 μM, CHO cell transfected with hCB2 receptors; read-out: AC-inhibition at CB2Rs
Procedure: Adenylyl cyclases are a family of membrane-bound enzymes that catalyze the intracellular production of the second messenger cAMP from ATP. Adenylyl cyclase activity is modulated by activated G-proteins: Gs-proteins stimulate activity, while Gi/o-proteins are inhibitory. Thus, agonists of G-protein coupled receptors (GPCRs) coupled to Gi/o-proteins, such as hCB2Rs, decrease cAMP production due to inhibition of adenylyl cyclase activity. In this assay, intact CHO-hCB2R cells are preincubated with [^3H]-adenine and treated with forskolin (10 or 30 μM) to stimulate adenylyl cyclase activity.
A functional assay screen for the inhibition of adenylate cyclase (AC) activity was chosen as the subsequent assay. […] Reaching full-receptor occupancy, which is predicted to produce maximal efficacy, is desirable at 10 μM concentration of all the compounds was used.

[8] = mouse brain homogenates, 0.2 nM [3H]CP-55,940, read-out: [3H]CP binding Ki

SMILES: CCCCn1cc(-c2cccc3ccccc23)c2cccc(OC)c21
- melting point: 74 to 76 °C

SMILES: CCCCn1cc(C(=O)Cc2ccc(OC)cc2)c2cccc(OC)c21
- melting point: 72 to 74 °C

SMILES: CC1=CC[C@@H]2[C@@H](C1)c1c(O)cc(CC#CCCCNS(C)(=O)=O)cc1OC2(C)C [Compound O-2050, reference compound]
- antagonism of AC-inhibition produced by the CB1R full agonist JWH-073 ([1]; 1 μM concentration): antagonized AC-inhibition

SMILES: CCCCCn1cc(C(=O)c2cccc3ccccc23)c2ccccc21 [JWH-018]
- EC50 (CB1Rs [2]; JWH-018 alone, read-out: EC50 of JWH-018 for G-protein activation, alone): 8 nM
- EC50 (CB1Rs [2]; read-out: EC50 of JWH-018 in the presence of M4, + M4 1 μM): 178 nM
- EC50 (CB1Rs [2]; read-out: EC50 of JWH-018 in the presence of M4, + M4 3 μM): 263 nM
- EC50 (CB1Rs [2]; read-out: EC50 of JWH-018 in the presence of M4, + M4 10 μM): 1560 nM
- maximal decrease in core body temperature to (NIH Swiss mice [3]; JWH-018 3 mg/kg, alone): 30.28+/−0.71 °C

SMILES: CCCCn1cc(C(=O)Cc2ccccc2F)c2cccc(OC)c21
- melting point: 86 to 88 °C

SMILES: CCCCn1cc(C(=O)c2cccc3ccccc23)c2c(O)cccc21 [Compound M1]
- Ki (CB1Rs [4]; [8]): 14.1 ± 3.5 nM
- [35S]GTPγS Binding, 1 μM (CB1Rs [2]): 0.17 ± 0.01 pmol/mg
- [35S]GTPγS Binding, +O-2050 (1 μM) (CB1Rs [2]): 0.07 ± 0.01 pmol/mg
- [35S]GTPγS Binding Emax (CB1Rs [2]; concentration-effect, mouse brain homogenates): 0.14 ± 0.01^b pmole/mg
- EC50 (CB1Rs [2]; concentration-effect, mouse brain homogenates, read-out: [35S]GTPγS Binding EC50): 113 ± 29.2 nM
- [35S]GTPγS Binding, 10 μM (CB1Rs [2]): 0.14±0.01 pmole/mg and 0.14 ± 0.01^a pmole/mg
- minimum core body temperature recorded (NIH Swiss mice [3]; 10 mg/kg): 30.32±0.66 °C
- time to maximal core body temperature reduction (NIH Swiss mice [3]; 10 mg/kg): 58.00 ± 4.64 min
- locomotor activity (NIH Swiss mice [5]): reduction of locomotor activity similar to that observed with administration of JWH-073

SMILES: O=C(c1cccc2ccccc12)c1cn(CCCCO)c2ccccc12 [Compound M5]
- Ki (CB1Rs [4]; [8]): 224 ± 9 nM
- [35S]GTPγS Binding, 1 μM (CB1Rs [2]): 0.12 ± 0.00 pmol/mg
- [35S]GTPγS Binding, +O-2050 (1 μM) (CB1Rs [2]): 0.05 ± 0.01 pmol/mg
- [35S]GTPγS Binding, 10 μM (CB1Rs [2]): 0.16±0.02 pmole/mg and 0.16 ± 0.02^a pmole/mg

SMILES: O=C(O)CCCn1cc(C(=O)c2cccc3ccccc23)c2ccccc21 [Compound M6, 4-(3-(1-naphthoyl)-1H-indole-1-yl)-1-butanoic acid, reference compound]
- displacement of [3H]CP-55,940 specific binding (CB1Rs [4]; concentrations as high as 10 μM): less than 10%

SMILES: COc1cccc2c(C(=O)c3cccc4ccccc34)cn(CCN3CCOCC3)c12
- melting point: 149 to 152 °C

SMILES: CCCCn1cc(C(=O)Cc2ccccc2)c2cccc(OC)c21
- melting point: 65 to 68 °C

SMILES: CCCCn1cc(C(=O)c2cccc3ccccc23)c2ccc(O)cc21 [Compound M3]
- Ki (CB1Rs [4]; mouse brain homogenates, 0.2 nM [3H]CP-55,940, read-out: CB1R affinity (Ki)): 1280 ± 470 nM
- [35S]GTPγS Binding, 1 μM (CB1Rs [2]): 0.04 ± 0.00 pmol/mg
- [35S]GTPγS Binding, +O-2050 (1 μM) (CB1Rs [2]): 0.02 ± 0.01 pmol/mg
- [35S]GTPγS Binding, 10 μM (CB1Rs [2]): 0.11±0.02 pmole/mg and 0.11 ± 0.02^a,b pmole/mg

SMILES: CCCCn1cc(C(=O)Cc2cccc3ccccc23)c2cccc(OC)c21
- melting point: 110 to 113 °C

SMILES: CCCCn1cc(C(=O)Cc2ccc(F)cc2)c2cccc(OC)c21 [TV-5-129, 1-(1-butyl-7-methoxy-1H-indol-3-yl)-2-(4-fluorophenyl)ethanone]
- Ki (CB1Rs [4]; Table 3, read-out: mCB1R Ki): 387 ± 77 nM
- Ki (hCB2Rs [6]): 281 nM
- inhibition at 10 µM (hCB2Rs [7]): 22.1%
- inhibition at 10 µM ([1]; N2a, 10 μM, Neuro2A cells): -4%
